Measured values published in patent US20030078237A1, “Phenanthryl piperazinyl dicarboxylic acids as selective nmda receptor modulating agents” (priority 1999, published 2003).
pKd, pKi: −log10 of the molar value. Read-outs that look alike come from different tables or passages of the source. One block for each compound: values may come before it.

Columns and labels:
[1] = system: AMPA subtype of glutamate receptors; assay: AMPA-induced depolarizations on neonatal rat motoneurones; format: cell-based; conditions: PPDA 5 μM, AMPA 6 μM
Protocol: (§1) Hemisected neonatal rat spinal cords (Evans and Watkins, European Journal of Pharmacology, 50: 123-129, 1978) were isolated and wire electrodes were placed under the exposed ventral roots. The preparation was superfused with standard Ringers (containing in mM: NaCl 118, NaHCO3 25, KCl 3, CaCl2 2.5, D-glucose 12 and gassed with 95% O2/5% CO2). To record agonist-induced responses, 0.1 μM tetrodotoxin was included to block synaptic transmission and associated depolarizations. Agonist (N-methyl-D-aspartate (NMDA)) was superfused for 60-120 seconds at a rate of 1 ml/minute. The relative positive potentials recorded by the distal (to spinal cord) wire electrode compared to the proximal electrode was taken as an indication of motor neuron cell body depolarization. Antagonism of agonist-induced responses was observed by co-application of the antagonist PPDA.
(§2) AMPA and kainate are protypical agonists which show selectivity for, and predominantly activate, the AMPA and kainate subtypes of glutamate receptors. In additional assays, PPDA was tested at a concentration of 5 μM (which is approximately 20 times the Kd value for the antagonism of NMDA receptors) as an antagonist of AMPA (6 μM)-, kainate (50 μM)- and NMDA (50 μM)-induced depolarizations (approximate EC50 concentrations used) on neonatal rat motoneurones.

NR1/NR2C [2] = biological target: T1, NR1/NR2C (Rattus norvegicus, UniProt P35439+Q00961); assay: two-microelectrode voltage clamp of recombinant NMDA receptors in Xenopus oocytes, NR1/NR2C; format: cell-based
T1 construct: expressed in transfected cells; host or cells: Xenopus oocytes injected with in vitro transcribed RNA
Protocol: (§3) RNA translation and transcription in Xenopus oocytes and electrophysiological recordings were performed as previously described (Monaghan D T, Larson H (1997) J Pharmacol Exp Ther 280:614 -620). Plasmids were linearized with NotI (NR1a), EcoRI (NR2A, NR2C, and NR2D), or SalI (NR2B) and transcribed in vitro using the mMessage mMachine RNA polymerase transcription kit (Ambion, Austin, Tex.). NR1 a was mixed 1:3 with NR2A, NR2B, NR2C, or NR2D RNA, and 2-50 ng of this mixture was injected into oocytes. Agonist-evoked responses were measured using a standard two-microelectrode voltage clamp (model OC-725B Oocyte Clamp; Warner Instruments, Hamden, Conn.) at a holding potential of −60 mV. Glutamate (10 μM) and glycine (10 μM) were applied until stable plateau responses were obtained; (±)-cis-1-(phenanthren-2-yl-carbonyl)-piperazine-2,3-dicarboxylic acid (PPDA) (0.1, 0.3, 1, 3, 10, or 30 μM) was then applied until steady-state blockade was obtained, followed by antagonist washout and full agonist responses. Current responses were captured and analyzed with AxoData (Axon Instruments, Foster City, Calif.) and GraphPad Prism (ISI Software, San Diego, Calif.) software. Ki values were corrected for agonist affinity according to the Cheng-Prusoff equation. Data in Table 3 are expressed as mean Kl±SEM. […]

NR1/NR2B [3] = biological target: T2, NR1/NR2B (Rattus norvegicus, UniProt P35439+Q00960); assay: two-microelectrode voltage clamp of recombinant NMDA receptors in Xenopus oocytes, NR1/NR2B; format: cell-based
T2 construct: expressed in transfected cells; host or cells: Xenopus oocytes injected with in vitro transcribed RNA
Protocol: as §3

NR1/NR2D [4] = biological target: T3, NR1/NR2D (Rattus norvegicus, UniProt P35439+Q62645); assay: two-microelectrode voltage clamp of recombinant NMDA receptors in Xenopus oocytes, NR1/NR2D; format: cell-based
T3 construct: expressed in transfected cells; host or cells: Xenopus oocytes injected with in vitro transcribed RNA
Protocol: as §3

NMDA receptors = assay: NMDA-induced depolarizations of motoneurones, hemisected neonatal rat spinal cord; format: cell-based
Protocol: as §1, §2

[5] = system: native non-NMDA glutamate receptors ([3H]kainate binding); assay: autoradiography, [3H]kainate binding; conditions: PPDA 10 μM; 25 nM [3H]kainate; n=3
native AMPA receptors = assay: autoradiography, [3H]CNQX binding to native AMPA receptors; conditions: PPDA 10 μM; 100 nM [3H]CNQX; n=3
[6] = biological target: T4, Native NMDA receptor, Medial Striatum (NR2B) (Rattus norvegicus, UniProt Q00960); assay: quantitative receptor autoradiography of [3H]-glutamate labeled native NMDA receptors, medial striatum; format: binding
T4 construct: Native NMDA Receptor Potency; from tissue; host or cells: rat brain sections, medial striatum
Protocol: (§4) PPDA (50 μM) also had no effect on depolarizations following administration of (1S,3R)-1-amino-1,3-cyclopentane dicarboxylic acid (ACPD; 30 μM). APCD is a Group I metabotropic glutamate (mGlu) receptor agonist. The recited values were determined by using quantitative receptor autoradiography of [^3H]-glutamate labeled NMDA receptors in rat brain tissue sections.
(§5) The potency of PPDA for native NMDA receptors was also investigated in a Xenopus oocyte system.

[7] = biological target: T5, Native NMDA receptor, Cerebellum (NR2A) (Rattus norvegicus, UniProt Q00959); assay: quantitative receptor autoradiography of [3H]-glutamate labeled native NMDA receptors, cerebellum NR2A; format: binding
T5 construct: Native NMDA Receptor Potency; from tissue; host or cells: rat brain sections, cerebellum
Protocol: as §4, §5

[8] = biological target: Native NMDA receptor, Midline thalamus (NR2B/NR2D); assay: quantitative receptor autoradiography of [3H]-glutamate labeled native NMDA receptors, midline thalamus; format: binding; conditions: [3H]-glutamate autoradiography, rat brain sections; read-out: Ki, native NMDA receptor potency, Midline thalamus (NR2B/NR2D)
Protocol: as §4, §5

[9] = system: kainate subtype of glutamate receptors; assay: kainate-induced depolarizations on neonatal rat motoneurones; format: cell-based; conditions: PPDA 5 μM, kainate 50 μM
Protocol: as §1, §2

[10] = system: Group I metabotropic glutamate (mGlu) receptor; assay: ACPD-induced depolarizations on neonatal rat motoneurones; format: cell-based; conditions: PPDA 50 μM; ACPD 30 μM
Protocol: as §1, §4

[11] = biological target: T6, Native NMDA receptor, Cerebellum (NR2C) (Rattus norvegicus, UniProt Q00961); assay: quantitative receptor autoradiography of [3H]-glutamate labeled native NMDA receptors, cerebellum NR2C; format: binding
T6 construct: Native NMDA Receptor Potency; from tissue; host or cells: rat brain sections, cerebellum
Protocol: as §4, §5

NR1/NR2C [12] = biological target: T7, NR1/NR2C (Rattus norvegicus, UniProt Q00961); conditions: recombinant, Xenopus oocytes; from Buller and Monaghan 1997, mean +/- SEM, n=4-6; cited from earlier work
T7 construct: expressed in transfected cells; host or cells: Xenopus oocytes injected with in vitro transcribed RNA

NR1/NR2A [13] = biological target: T8, NR1/NR2A (Rattus norvegicus, UniProt Q00959); conditions: recombinant, Xenopus oocytes; from Buller and Monaghan 1997, mean +/- SEM, n=4-6; cited from earlier work
T8 construct: expressed in transfected cells; host or cells: Xenopus oocytes injected with in vitro transcribed RNA

NR1/NR2D [14] = biological target: T9, NR1/NR2D (Rattus norvegicus, UniProt Q62645); conditions: recombinant, Xenopus oocytes; from Buller and Monaghan 1997, mean +/- SEM, n=4-6; cited from earlier work
T9 construct: expressed in transfected cells; host or cells: Xenopus oocytes injected with in vitro transcribed RNA

NR1/NR2B [15] = biological target: T10, NR1/NR2B (Rattus norvegicus, UniProt Q00960); conditions: recombinant, Xenopus oocytes; from Buller and Monaghan 1997, mean +/- SEM, n=4-6; cited from earlier work
T10 construct: expressed in transfected cells; host or cells: Xenopus oocytes injected with in vitro transcribed RNA

NR1/NR2A [16] = biological target: T11, NR1/NR2A (Rattus norvegicus, UniProt P35439+Q00959); assay: two-microelectrode voltage clamp of recombinant NMDA receptors in Xenopus oocytes, NR1/NR2A; format: cell-based; conditions: NR1a co-expressed in Xenopus oocytes, mean +/- SEM
T11 construct: expressed in transfected cells; host or cells: Xenopus oocytes injected with in vitro transcribed RNA
Protocol: as §3

T2 sequence (Q00960 27-1482, other chains not shown): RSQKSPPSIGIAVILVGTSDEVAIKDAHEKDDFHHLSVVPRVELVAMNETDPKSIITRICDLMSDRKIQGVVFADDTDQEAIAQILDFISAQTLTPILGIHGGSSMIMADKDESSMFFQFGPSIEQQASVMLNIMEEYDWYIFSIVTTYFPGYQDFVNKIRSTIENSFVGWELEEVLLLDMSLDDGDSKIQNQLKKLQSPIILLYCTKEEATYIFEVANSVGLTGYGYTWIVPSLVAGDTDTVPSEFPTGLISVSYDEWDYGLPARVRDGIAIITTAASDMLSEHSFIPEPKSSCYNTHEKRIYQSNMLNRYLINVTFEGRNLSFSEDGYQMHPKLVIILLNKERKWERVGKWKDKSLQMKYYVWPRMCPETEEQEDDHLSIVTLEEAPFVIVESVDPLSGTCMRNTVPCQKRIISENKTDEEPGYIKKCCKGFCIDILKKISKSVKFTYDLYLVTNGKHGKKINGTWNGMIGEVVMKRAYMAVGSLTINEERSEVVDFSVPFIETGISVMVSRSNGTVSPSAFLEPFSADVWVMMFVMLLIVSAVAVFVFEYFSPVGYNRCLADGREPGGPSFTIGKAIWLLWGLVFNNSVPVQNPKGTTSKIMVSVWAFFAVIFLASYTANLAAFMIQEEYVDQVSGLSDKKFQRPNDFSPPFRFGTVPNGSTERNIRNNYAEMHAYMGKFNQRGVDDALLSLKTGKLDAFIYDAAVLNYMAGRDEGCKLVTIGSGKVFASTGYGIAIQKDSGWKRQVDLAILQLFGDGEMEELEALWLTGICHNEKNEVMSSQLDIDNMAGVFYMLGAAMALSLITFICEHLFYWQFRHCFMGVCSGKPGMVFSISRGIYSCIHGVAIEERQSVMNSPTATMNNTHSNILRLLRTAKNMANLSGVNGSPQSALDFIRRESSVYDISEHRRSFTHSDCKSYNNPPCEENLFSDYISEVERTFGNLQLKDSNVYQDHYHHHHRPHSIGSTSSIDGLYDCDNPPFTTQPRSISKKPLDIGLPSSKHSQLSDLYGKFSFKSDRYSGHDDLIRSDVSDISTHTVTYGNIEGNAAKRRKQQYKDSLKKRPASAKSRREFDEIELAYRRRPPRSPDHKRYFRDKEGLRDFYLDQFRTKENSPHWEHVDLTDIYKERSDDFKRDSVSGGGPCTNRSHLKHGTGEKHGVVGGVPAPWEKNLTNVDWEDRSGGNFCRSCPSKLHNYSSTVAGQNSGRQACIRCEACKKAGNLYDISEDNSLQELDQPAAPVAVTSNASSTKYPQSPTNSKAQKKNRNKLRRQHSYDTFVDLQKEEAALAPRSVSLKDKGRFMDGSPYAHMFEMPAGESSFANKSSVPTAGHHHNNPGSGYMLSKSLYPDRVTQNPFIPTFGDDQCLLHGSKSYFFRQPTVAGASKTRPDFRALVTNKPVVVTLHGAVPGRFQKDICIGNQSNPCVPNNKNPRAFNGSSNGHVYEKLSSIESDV
T10 sequence (Q00960 27-1482, other chains not shown): as above
T8 sequence (Q00959 23-1464, other chains not shown): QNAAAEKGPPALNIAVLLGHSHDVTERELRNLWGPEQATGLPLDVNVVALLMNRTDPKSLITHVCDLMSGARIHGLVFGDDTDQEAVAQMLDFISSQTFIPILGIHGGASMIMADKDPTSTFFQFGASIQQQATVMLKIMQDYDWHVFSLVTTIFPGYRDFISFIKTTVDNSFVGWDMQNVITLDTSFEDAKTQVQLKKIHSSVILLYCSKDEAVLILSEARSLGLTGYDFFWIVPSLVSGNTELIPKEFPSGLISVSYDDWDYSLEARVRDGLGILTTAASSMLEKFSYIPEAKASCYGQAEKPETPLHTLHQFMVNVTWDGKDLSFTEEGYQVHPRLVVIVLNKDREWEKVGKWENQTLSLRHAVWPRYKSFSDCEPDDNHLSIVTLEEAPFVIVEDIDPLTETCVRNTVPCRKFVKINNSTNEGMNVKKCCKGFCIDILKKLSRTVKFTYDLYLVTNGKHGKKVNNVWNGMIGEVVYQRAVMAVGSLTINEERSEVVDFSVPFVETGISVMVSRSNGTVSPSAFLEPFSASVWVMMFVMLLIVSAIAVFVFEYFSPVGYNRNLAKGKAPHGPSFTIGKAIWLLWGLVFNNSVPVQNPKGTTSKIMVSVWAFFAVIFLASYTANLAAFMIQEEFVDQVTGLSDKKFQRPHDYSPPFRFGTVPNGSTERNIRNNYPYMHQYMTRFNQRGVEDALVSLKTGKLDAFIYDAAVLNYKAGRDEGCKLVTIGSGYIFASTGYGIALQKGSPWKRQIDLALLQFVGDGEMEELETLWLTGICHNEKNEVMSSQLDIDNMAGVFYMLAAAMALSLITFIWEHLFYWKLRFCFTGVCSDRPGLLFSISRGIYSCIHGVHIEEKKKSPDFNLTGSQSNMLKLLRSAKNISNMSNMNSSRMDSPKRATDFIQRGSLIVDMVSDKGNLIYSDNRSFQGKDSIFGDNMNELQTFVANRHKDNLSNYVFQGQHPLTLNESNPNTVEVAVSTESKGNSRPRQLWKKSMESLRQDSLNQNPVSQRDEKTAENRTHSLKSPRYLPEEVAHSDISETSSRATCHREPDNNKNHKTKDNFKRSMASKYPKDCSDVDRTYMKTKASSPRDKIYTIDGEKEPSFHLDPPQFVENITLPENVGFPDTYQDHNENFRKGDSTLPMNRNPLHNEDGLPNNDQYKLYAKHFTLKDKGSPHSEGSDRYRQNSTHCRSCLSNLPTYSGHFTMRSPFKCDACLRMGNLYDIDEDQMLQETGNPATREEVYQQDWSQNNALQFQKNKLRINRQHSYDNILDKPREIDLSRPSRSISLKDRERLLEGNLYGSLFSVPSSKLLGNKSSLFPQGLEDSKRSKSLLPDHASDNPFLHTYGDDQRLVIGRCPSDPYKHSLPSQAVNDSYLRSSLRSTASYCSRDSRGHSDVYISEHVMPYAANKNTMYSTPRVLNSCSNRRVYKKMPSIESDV

Compound: O=C(O)[C@H]1NCCN(C(=O)c2ccc3c(ccc4ccccc43)c2)[C@H]1C(=O)O (racemic) [PPDA, (±)-cis-1-(Phenanthrene-2-ylcarbonyl)Piperazine-2,3-Dicarboxylic Acid]
antagonism of AMPA-induced depolarizations [1]: 15% | pKi (NR1/NR2C [2]): 7.15 | pKi (NR1/NR2B [3]): 6.46 | pKi (NR1/NR2D [4]): 6.96 | antagonism of NMDA-induced depolarizations (NMDA receptors; PPDA 5 μM, NMDA 50 μM, neonatal rat motoneurones): 88% | pKd (NMDA receptors; neonatal rat spinal cord, competitive antagonist, read-out: affinity (Kd), Schild analysis of NMDA-induced depolarizations): 6.61 | potency as antagonist of NMDA-induced depolarizations relative to CPP-ene (NMDA receptors; spinal cord): as potent as CPP-ene | inhibition of [3H]kainate binding [5]: 9.3±6.7% | inhibition of [3H]CNQX binding to native AMPA receptors (native AMPA receptors): 44.6±1.3% | pKi [6]: 6.27 | pKi [7]: 5.14 | pKi [8]: 6.51 | antagonism of kainate-induced depolarizations [9]: 21% | effect on ACPD-induced depolarizations [10]: no effect | pKi [11]: 6.41

Compound: O=C(O)C1CN(CC=CP(=O)(O)O)CCN1 (stereo not drawn) [CPP-ene, 4-(3-phosphonoprop-2-enyl)piperazine-2-carboxylic acid]
pKi (NR1/NR2C [12]): 5.84 | pKi (NR1/NR2A [13]): 6.96 | pKi (NR1/NR2D [14]): 5.74 | pKi (NR1/NR2B [15]): 6.85

Compound: N[C@H](CCCP(=O)(O)O)C(=O)O [D-AP5]
pKi (NR1/NR2C [12]): 5.79 | pKi (NR1/NR2A [13]): 6.55 | pKi (NR1/NR2D [14]): 5.43 | pKi (NR1/NR2B [15]): 6.34

pKi (NR1/NR2C [2]; recombinant, NR1a co-expressed in Xenopus oocytes, mean +/- SEM, read-out: NR1/NR2C Ki): 5.05 | pKi (NR1/NR2B [3]; recombinant, NR1a co-expressed in Xenopus oocytes, mean +/- SEM, read-out: NR1/NR2B Ki): 5.30 | pKi (NR1/NR2D [4]; recombinant, NR1a co-expressed in Xenopus oocytes, mean +/- SEM, read-out: NR1/NR2D Ki): 5.37 | pKi (NR1/NR2A [16]): 4.80
Compound: O=C(O)C1NCCN(C(=O)c2ccc(-c3ccccc3)cc2)C1C(=O)O (stereo not drawn) [PBPD, 1-(4-phenylbenzoyl)-piperazine-2,3-dicarboxylic acid, reference compound]
